Measurements published in ChEMBL document CHEMBL6074685, “Design, synthesis and biological evaluation of novel diaryl-substituted fused nitrogen heterocycles as tubulin polymerization inhibitors to overcome multidrug resistance in vitro and in vivo” (Eur J Med Chem, 2025).
In brackets after ≈: the same amount, converted by molar mass. Activity calls are given as the source filed them. The calls are words filed in the database; no cut-off is given here.

Legend:
[1] = Resistance index, ratio of IC50 for human A549/T cells to IC50 for human A549 cells; format: functional
A549 [2] = assay: Antiproliferative activity against human A549 cells assessed as cell growth inhibition incubated for 48 hrs by MTT assay; conditions: A549, 48 h
A549/TR [3] = assay: Antiproliferative activity against human A549/T cell assessed as cell growth inhibition incubated for 48 hrs by MTT assay; format: functional, cell-based
A549/TR [4] = assay: Antiproliferative activity against human A549/T cell assessed as cell growth inhibition in presence of verapamil incubated for 48 hrs by MTT assay; format: functional, cell-based
A549/TR [5] = assay: Antiproliferative activity against human A549/T cell assessed as cell growth inhibition at 80 nM incubated for 48 hrs by MTT assay; format: functional, cell-based
A549/TR [6] = assay: Antitumor activity against human A549/T cell xenografted in BALB/c mouse assessed as reduction in tumor growth at 15 mg/kg, ip administered every 2 days; format: functional, organism-based; conditions: time 2.0 day
A549/TR [7] = assay: Inhibition of colony formation in human A549/T cell at 1 uM incubated for 48 hrs by crystal violet staining based analysis; format: functional
[8] = Toxicity in BALB/c mouse implanted with human A549/T cell assessed as change in body weight at 15 mg/kg, ip administered every 2 days; format: organism-based; conditions: in vivo, 48 h, time 2 day
Tubulin (Homo sapiens) = Tubulin (Homo sapiens) (UniProt P68371+Q9H4B7+P0DPH7+P68366+Q13509+Q71U36+P04350+Q3ZCM7+P07437+P68363+Q9BQE3+Q6PEY2+Q13885+Q9BVA1+Q9BUF5); assay: Disruption of microtubule network in human A549/T cell assessed as disorganization of tubulin cytoskeleton at 1000 nM incubated for 24 hrs by immunofluorescence staining based confocal microscopy analysis
A549 [9] = assay: Inhibition of colony formation in human A549 cells at 1 uM incubated for 48 hrs by crystal violet staining based analysis; format: functional, cell-based
[10] = Metabolic stability in human liver microsome assessed as half life measured upto 50 mins by LC-MS/MS analysis; format: ADME; conditions: liver microsomes
[11] = Aqueous solubility of the compound […] at pH 7.4 by HPLC analysis; format: physicochemical
[12] = Metabolic stability in human liver microsome assessed as intrinsic clearance measured upto 50 mins by LC-MS/MS analysis; format: ADME; conditions: liver microsomes, read-out: CLH
[13] = Inhibition of pig brain tubulin polymerization measured upto 20 mins by absorbance based assay; set-up: species or system Sus scrofa
[14] = Metabolic stability in mouse liver microsome assessed as intrinsic clearance measured upto 50 mins by LC-MS/MS analysis; format: ADME; conditions: liver microsomes, read-out: CLH
[15] = Metabolic stability in mouse liver microsome assessed as half life measured upto 50 mins by LC-MS/MS analysis; format: ADME; conditions: liver microsomes

SMILES	Ratio IC50 [1]	IC50 (A549 [2]) [nM]	IC50 (A549/TR [3]) [µM]	also measured
COc1ccc(-c2cc(-c3cc(OC)c(OC)c(OC)c3)c3[nH]c(=O)[nH]c3c2)cc1F	2.37	1270	3.02	–
COc1cc(-c2cc(-c3ccc(Cl)c(N)c3)cc3[nH]cnc23)cc(OC)c1OC	2.21	410	0.91	–
COc1cc(-c2cc(C)cc3[nH]cnc23)cc(OC)c1OC	–	> 50000	> 50	–
COc1ccc(-c2nc3c(c(Nc4cc(OC)c(OC)c(OC)c4)n2)SCC3)cc1F	–	> 50000	> 50	–
COc1ccc(-c2nc(Nc3cc(OC)c(OC)c(OC)c3)c3cccnc3n2)cc1F	>9.43	5360	> 50	–
COc1cc(-c2cccc3[nH]cnc23)cc(OC)c1OC	–	> 50000	> 50	–
COc1cc2c(c(OC)c1OC)-c1ccc(OC)c(=O)cc1[C@@H](NC(C)=O)CC2 [COLCHICINE]	12	22	0.28	Activity (A549/TR [4]): Active
COc1ccc(-c2nc3c(c(Nc4cc(OC)c(OC)c(OC)c4)n2)CCC3)cc1F	1.54	23000	35.5	–
COc1ccc(-c2cc(-c3ccccc3OC)c3nc[nH]c3c2)cc1N	2.5	140	0.35	–
COc1ccc(-c2cncc3[nH]c(=O)n(Cc4cc(OC)c(OC)c(OC)c4)c23)cc1O	–	–	> 50	–
CC[C@]1(O)C[C@H]2CN(CCc3c([nH]c4ccccc34)[C@@](C(=O)OC)(c3cc4c(cc3OC)N(C=O)[C@H]3[C@@](O)(C(=O)OC)[C@H](OC(C)=O)[C@]5(CC)C=CCN6CC[C@]43[C@@H]65)C2)C1 [VINCRISTINE]	207	21	4.35	–
COc1ccc(-c2cc(-c3cc(OC)c(OC)c(OC)c3)c3nc[nH]c3c2)cn1	1.34	290	0.39	–
COc1ccc(CCN(C)CCCC(C#N)(c2ccc(OC)c(OC)c2)C(C)C)cc1OC (centres undefined)	–	–	–	Activity (A549/TR [5]): Active; Activity (A549/TR [3]): inactive
COc1ccc(-c2cc(-c3cc(OC)c(OC)c(OC)c3)c3nc[nH]c3c2)cc1CO	3.36	470	1.58	–
CC(=O)O[C@H]1C(=O)[C@@]2(C)[C@H]([C@H](OC(=O)c3ccccc3)[C@]3(O)C[C@H](OC(=O)[C@H](O)[C@@H](NC(=O)c4ccccc4)c4ccccc4)C(C)=C1C3(C)C)[C@]1(OC(C)=O)CO[C@@H]1C[C@@H]2O [PACLITAXEL]	>25000	2	> 50	Activity (A549/TR [6]): inactive; inhibition (A549/TR [7]): inactive; Activity [8]: Non-toxic; Activity (Tubulin (Homo sapiens)): Active; inhibition (A549 [9]): Active; Activity (A549/TR [4]): Active
COc1cc(-c2cc(-c3ccc(C4CC4)cc3)cc3[nH]cnc23)cc(OC)c1OC	1.34	4920	6.76	–
COc1ccc(-c2cc(-c3cc(OC)c(OC)c(OC)c3)c3[nH]c(=O)[nH]c3c2)cc1O	1.62	290	0.47	–
COc1ccc(-c2nc3cnccc3n2-c2cc(OC)c(OC)c(OC)c2)cc1O	–	–	> 50	–
COc1ccc(-c2nc3c(c(Nc4cc(OC)c(OC)c(OC)c4)n2)CCCC3)cc1F	1.12	10400	11.7	–
COc1ccc(-c2cc(-c3cc(OC)c(OC)c(OC)c3)c3nc[nH]c3c2)cc1	1.94	780	1.51	–
CC(=O)O[C@@]12CO[C@@H]1C[C@H](O)[C@@]1(C)C(=O)[C@H](O)C3=C(C)[C@@H](OC(=O)[C@H](O)[C@@H](NC(=O)OC(C)(C)C)c4ccccc4)C[C@@](O)([C@@H](OC(=O)c4ccccc4)[C@H]21)C3(C)C [DOCETAXEL ANHYDROUS]	7840	1	7.84	Activity (A549/TR [4]): Active
COc1cc(-c2cc(-c3ccc(C)cc3)cc3[nH]cnc23)cc(OC)c1OC	1.42	680	0.97	–
COc1ccc(/C=C\c2cc(OC)c(OC)c(OC)c2)cc1O [COMBRETASTATIN A4]	–	–	0.013	half-life [10]: 14 min; Activity (A549/TR [6]): Active; Activity [8]: Non-toxic; solubility [11]: 1 µg/mL (≈ 3.16 µM); CLint scaled [12]: 90 mL/min/kg; IC50 [13]: 1400 nM
COc1ccc(-c2cncc3[nH]c(=O)n(-c4cc(OC)c(OC)c(OC)c4)c23)cc1F	–	–	> 50	–
COc1ccc(Nc2nc(Nc3cc(OC)c(OC)c(OC)c3)c3ccccc3n2)cc1F	3.96	2770	11	–
COc1cc(-c2cc(Br)cc3[nH]cnc23)cc(OC)c1OC	1.28	28900	37.1	–

SMILES	Ratio IC50 [1]	IC50 (A549 [2]) [nM]	IC50 (A549/TR [3]) [µM]	also measured
CCOc1ccc(-c2cc(-c3cc(OC)c(OC)c(OC)c3)c3nc[nH]c3c2)cc1	2.86	1030	2.95	–
COc1ccc(-c2nc(Nc3cc(OC)c(OC)c(OC)c3)c3ncn(C)c3n2)cc1F	3.23	1210	3.91	–
COc1ccc(-c2nc(N(C)c3cc(OC)c(OC)c(OC)c3)c3ncn(C)c3n2)cc1F	1.67	9910	16.6	–
COc1ccc(-c2cc(-c3ccc(OC)c(N)c3)cc3[nH]cnc23)cc1	1.5	11000	16.6	–
COc1cc(-c2cc(-c3ccc(C)c(F)c3)cc3[nH]cnc23)cc(OC)c1OC	3.45	110	0.38	–
COc1cc(-c2cc(-c3ccc(C)c(N)c3)cc3[nH]cnc23)cc(OC)c1OC	2.08	240	0.5	–
COc1ccc(-c2cc(-c3cc(OC)c(OC)c(OC)c3)c3nc(C)[nH]c3c2)cc1F	1.9	5370	10.2	–
COc1ccc(-c2cc(Oc3cc(OC)c(OC)c(OC)c3)c3nc[nH]c3c2)cc1F	1.99	5130	10.2	–
COc1ccc2nc(-c3ccc(OC)c(F)c3)nc(Nc3cc(OC)c(OC)c(OC)c3)c2c1	4.37	2040	8.91	–
COc1ccc(-c2cc(-c3cc(OC)c(OC)c(OC)c3)c3nc(C)[nH]c3c2)cc1O	3.58	530	1.9	–
COc1ccc(-n2c(=O)[nH]c3cnc(-c4cc(OC)c(OC)c(OC)c4)cc32)cc1O	–	–	> 50	–
COc1ccc(-c2cc(Oc3cc(OC)c(OC)c(OC)c3)c3ncn(C)c3c2)cc1F	2.05	200	0.41	–
COc1ccc(-c2cncc3[nH]c(=O)n(-c4cc(OC)c(OC)c(OC)c4)c23)cc1O	–	–	> 50	–
COc1ccc(-c2nc(Nc3cc(OC)c(OC)c(OC)c3)c3ccccc3n2)cc1F	>4.84	10300	> 50	–
COc1cc(-c2cc(Cl)cc3[nH]cnc23)cc(OC)c1OC	–	> 50000	> 50	–
COc1ccc(-c2cc(-c3cc(OC)c(OC)c(OC)c3)c3cc[nH]c3c2)cc1F	3.29	4820	15.8	–
COc1ccc(-c2nc(Nc3cc(OC)c(OC)c(OC)c3)c3cc(OC)c(OC)cc3n2)cc1F	–	> 50000	> 50	–
COc1cc(-c2cc(-c3ccc(C)c(O)c3)cc3[nH]cnc23)cc(OC)c1OC	4.68	190	0.89	–
O=C(c1ccc(F)cc1)C1CCN(CCn2c(=O)[nH]c3ccccc3c2=O)CC1 [KETANSERIN]	–	–	–	half-life [10]: 37 min; CLint scaled [14]: 419 mL/min/kg; CLint scaled [12]: 47 mL/min/kg; half-life [15]: 13 min
CCC1=C[C@@H]2CN(C1)Cc1c([nH]c3ccccc13)[C@@](C(=O)OC)(c1cc3c(cc1OC)N(C)[C@H]1[C@@](O)(C(=O)OC)[C@H](OC(C)=O)[C@]4(CC)C=CCN5CC[C@]31[C@@H]54)C2	–	–	–	Activity (A549/TR [4]): Active
COc1ccc(-c2cc3[nH]c(=O)[nH]c3c(Oc3cc(OC)c(OC)c(OC)c3)n2)cc1F	–	–	22.1	–
COc1ccc(-c2cc(-c3cc(OC)c(OC)c(OC)c3)c3nc[nH]c3c2)cc1N	4.84	33	0.16	–
COc1ccc(-c2cc(-c3cc(OC)c(OC)c(OC)c3)c3nc[nH]c3c2)cc1F	2.73	110	0.3	–
COc1ccc(-c2cc3c([nH]c(=O)n3-c3cc(OC)c(OC)c(OC)c3)c(C(N)=O)n2)cc1O	–	–	33.8	–
COc1ccc(-c2cc(-c3cc(OC)c(OC)c(OC)c3)c3nc[nH]c3c2)cc1O	4.06	59	0.24	–
